Measurements reported in ChEMBL document CHEMBL1147379, “Antineoplastic agents, 256. Cell growth inhibitory isocarbostyrils from Hymenocallis” (1993).
≈ marks a conversion by molar mass, not a printed value. Calls of active or inactive are those of the source. No cut-off for these calls is given here.

Key:
[1] = tested on: P388; assay: Growth inhibition of mouse P388 cells; format: functional; conditions: read-out: ED50 (the source's name)
[2] = tested on: M5076; assay: Growth inhibition of mouse M5076 cells; format: functional, cell-based

For O=C1N[C@H]2[C@H](O)[C@H](O)[C@@H](O)[C@H](O)[C@@H]2c2cc3c(c(O)c21)OCO3 [PANCRATISTATIN], the EC50 [1] was 0.01 µg/mL (≈ 0.0307 µM) and the Activity [2] was “Active”.
